Experimental data taken from EP0209707A2, “2-Aryl imidazoles, pharmaceutical compositions containing them and process for their preparation” (Dr. Karl Thomae GmbH, priority 1985, dated 1987).

Key:
narkotisierten Katze = test: Blood pressure effect and positive inotropic effect in the anaesthetised cat; format: in vivo; details: arterial pressure in Aorta abdominalis
Protocol: 1. Bestimmung der Blutdruckwirkung und der positiv inotropen Wirkung an der narkotisierten Katze
Die Untersuchungen wurden an Katzen durchgeführte die mit Pentobarbital-Natrium (40 mg/kg i.p.) narkotisiert waren. Die Tiere atmeten spontan. Der arterielle Blutdruck wurde in der Aorta abdominalis mit einem Statham-Druckwandler (P 23 Dc) gemessen. Für die Erfassung der positiv inotropen Wirkung wurde mit einem Kathetertipmanometer (Millar PC-350 A) der Druck in der linken Herzkammer gemessen. Daraus wurde der Kontraktilitätsparameter dp/dtmax mittels eines Analogdifferenzierers gewonnen. Die zu untersuchenden Substanzen wurden in eine Vena femoralis injiziert. Als Lösungsmittel diente Polydiol 200. Jede Substanz wurde an mindestens 2 Katzen geprüft.
Die nachfolgende Tabelle enthält die gefundenen Mittelwerte: […]

[1] = tested on: Thrombozytenaggregation in plättchenreichem Plasma gesunder Versuchspersonen; test: Collagen-induced platelet aggregation (Born and Cross) in platelet-rich plasma; format: cell-based; details: 10 min, 50% change of optical density, plasma incubated 10 min with substance at 37°C
Source text: Die Thrombozytenaggregation wird nach der Methode von BORN und CROSS (J. Physiol. 170, 397 (1964)) in plättchenreichem Plasma gesunder Versuchspersonen gemessen. Zur Gerinnungshemmung wird das Blut mit Natriumcitrat 3,14 % im Volumenverhältnis 1:10 versetzt.
Der Verlauf der Abnahme der optischen Dichte der Plättchensuspension wird nach Zugabe der aggregationsauslösenden Substanz photometrisch gemessen und registriert. Aus dem Neigungswinkel der Dichtekurve wird auf die Aggregationsgeschwindigkeit geschlossen. Der Punkt der Kurve, bei dem die größte Lichtdurchlässigkeit vorliegt, dient zur Berechnung der "optical density".
Die Collagen-Menge wird möglichst gering gewählt, aber doch so, daß sich eine irreversibel verlaufende Reaktionskurve ergibt. Verwendet wird das handelsübliche Collagen der Firma Hormonchemie, München.
Vor der Collagen-Zugabe wird das Plasma jeweils 10 Minuten mit der Substanz bei 37°C inkubiert.
Aus den erhaltenen Meßzahlen wird graphisch eine EC50 berechnet, die sich auf eine 50%ige Änderung der "optical density" im Sinne einer Aggregationshemmung bezieht.

[2] = second value of the printed pair (presumably diastolic), 1 mg/kg i.v.

EC50 [1] [µM] | Compound | Blutdruck senkung in mm Hg (narkotisierten Katze; second value of the printed pair (presumably diastolic), 0,6 mg/kg i.v.) [mm Hg] | Blutdruck senkung in mm Hg (narkotisierten Katze; second value of the printed pair (presumably diastolic), 2 mg/kg i.v.) [mm Hg] | Blutdruck senkung in mm Hg (narkotisierten Katze; [2]) [mm Hg]
– | COc1cc(NS(C)(=O)=O)ccc1-c1nc2ccc(C#N)cc2[nH]1 [D, 5-Cyano-2-(4'-methansulfonylamino-2'-methoxy-phenyl)-benzimidazol] | -27 | – | –
– | COC(=O)Nc1ccc(-c2nc3cnccc3[nH]2)c(OC)c1 [E, 2-(2'-Methoxy-4'-methoxycarbonylamino-phenyl)-imidazo-[4,5-c]pyridin] | – | -12 | –
5.3 | COc1cc(S(C)(=O)=NC(C)=O)ccc1-c1nc2cc(C#N)ccc2[nH]1 (centres unmarked) [A, 2-[2'-Methoxy-4'-(N-acetyl-methylsulfoximino-phenyl)]-5-cyano-benzimidazol] | – | – | -20
8.2 | COc1cc([S+](C)[O-])ccc1-c1nc2ccc(C(C)=O)cc2[nH]1 (centres unmarked) [B, 2-(2'-Methoxy-4'-methylsulfinyl-phenyl)-5-acetyl-benzimidazol] | – | – | -28
8 | COc1cc(S(C)(=O)=O)ccc1-c1nc2ccc(C(C)=O)cc2[nH]1 [C, 2-(2'-Methoxy-4'-methylsulfonyl-phenyl)-5-acetyl-benzimidazol] | – | – | -24
